In ChEMBL document CHEMBL5357062, “Emopamil-Binding Protein Inhibitors for Treating Multiple Sclerosis” (ACS Med Chem Lett, 2024):

Target: 3-beta-hydroxysteroid-Delta(8),Delta(7)-isomerase (Homo sapiens, UniProt Q15125)
Assay: Inhibition of EBP in HEK293T cells using zymosterol-d5 as substrate preincubated for 30 mins followed by substrate addition and measured after 4 hrs by LC-MS analysis
Type: cell-based

Chain of 3-beta-hydroxysteroid-Delta(8),Delta(7)-isomerase (Q15125 whole entry): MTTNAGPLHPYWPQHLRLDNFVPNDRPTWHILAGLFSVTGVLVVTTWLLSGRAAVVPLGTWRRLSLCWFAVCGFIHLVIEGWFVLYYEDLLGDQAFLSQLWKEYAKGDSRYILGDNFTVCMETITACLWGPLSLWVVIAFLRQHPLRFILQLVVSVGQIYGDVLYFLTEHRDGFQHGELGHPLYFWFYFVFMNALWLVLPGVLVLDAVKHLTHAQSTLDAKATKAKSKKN

IC50, < 100 nM:
Cn1nc(C(F)(F)F)cc1S(=O)(=O)N1CC2(CN(CC3CC4(COC4)C3)C2)C1
Cc1nc(C(F)(F)F)ccc1S(=O)(=O)N1CC2(CN(C(C)C3CCCO3)C2)C1 (stereo unspecified)
O=S(=O)(c1ccc(C(F)(F)F)nc1C1CC1)N1CC2(CN(C3CCOCC3)C2)C1
Cn1nc(C(F)(F)F)cc1S(=O)(=O)N1CCC2(CCN(C3CCOCC3)C2)CC1
CC(C)c1cc(S(=O)(=O)N2CC3(CN(C4CCOCC4)C3)C2)n(C)n1
O=S(=O)(c1cc(F)cc(F)c1)N1CCOC2(CCN(C3CCOCC3)C2)C1 (stereo unspecified)
